Measurements: patent publication US20250320193A1, “OXOISOINDOLINYL SUBSTITUTED PIPERIDINEDIONE DERIVATIVE AND USE THEREOF” (GLUETACS THERAPEUTICS (SHANGHAI) CO., LTD., priority 2022, published 2025)

What was measured:
GSPT1 = GSPT1 (Homo sapiens (Human), UniProt P15170+Q96SW2); experiment: Western blot, substrate protein expression in hPBMC: GSPT1; type: cell-based; conditions: hPBMC, compound 500 nM, 24 hours, Western blot
Method in brief: (§1)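 hPBMC, 1×10^6 cells/mL, 24 h compound exposure; RIPA lysis, BCA protein assay, SDS-PAGE, NC membrane immunoblot. Densitometry vs internal control → % protein remaining; degradation % = 100% − remaining; DC50 = conc. at 50% of DMSO band signal.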

[1] = target: human Cereblon WT GST-tagged protein (Homo sapiens (Human), UniProt Q96SW2); experiment: CRBN-binding affinity, HTRF (CEREBLON BINDING kit, CISBIO); conditions: HTRF inhibitory activity
human Cereblon WT GST-tagged protein, sequence (Q96SW2 whole entry): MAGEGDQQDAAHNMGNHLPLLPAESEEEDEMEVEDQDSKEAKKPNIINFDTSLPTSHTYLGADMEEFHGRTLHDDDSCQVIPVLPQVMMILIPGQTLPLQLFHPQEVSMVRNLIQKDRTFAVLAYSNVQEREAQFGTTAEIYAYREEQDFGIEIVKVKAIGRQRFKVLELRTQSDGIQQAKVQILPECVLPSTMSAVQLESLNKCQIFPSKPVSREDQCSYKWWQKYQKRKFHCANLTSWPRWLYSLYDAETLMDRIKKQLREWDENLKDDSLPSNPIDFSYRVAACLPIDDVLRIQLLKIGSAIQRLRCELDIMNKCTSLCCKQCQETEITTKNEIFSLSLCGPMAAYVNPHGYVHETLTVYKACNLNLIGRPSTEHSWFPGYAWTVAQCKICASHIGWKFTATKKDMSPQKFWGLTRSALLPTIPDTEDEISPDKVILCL
Method in brief: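 HTRF competition format: test compound displaces Thalidomide-Red from GST-tagged human Cereblon WT, detected with a Eu-labelled anti-GST antibody. Percent CRBN binding inhibition was derived from the 620 nm signal, normalized to solvent-control and protein-free blank wells.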

[2] = tested on: TMD8 cells (human diffuse large B-cell lymphoma cells); experiment: Tumor cell proliferation inhibition, CCK-8; type: cell-based; conditions: TMD8 cells, CCK-8, read-out: inhibitory activity (IC50, nM) TMD8
Method in brief: (§2)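 Cells were seeded, left for 24 h, then exposed to compound at 10 concentrations from a top of 10 μM in 5-fold serial dilutions. Viability was then read with CCK-8 reagent, and IC50 values came from the growth-inhibition curves.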

[3] = tested on: Kasumi-1 (human acute myeloid leukemia cells); experiment: Tumor cell proliferation inhibition, CCK-8; type: cell-based; conditions: Kasumi-1 cells, CCK-8, read-out: inhibitory activity (IC50, nM) Kasumi-1
Method in brief: as §2

[4] = tested on: H146 cells (human small cell lung carcinoma cells); experiment: Tumor cell proliferation inhibition, CCK-8; type: cell-based; conditions: NCI-H146, H146 cells, CCK-8, read-out: inhibitory activity (IC50, nM) H146
Method in brief: as §2

[5] = tested on: CAL-62 (human thyroid carcinoma cells); experiment: Tumor cell proliferation inhibition, CCK-8; type: cell-based; conditions: CAL-62 cells, CCK-8, read-out: inhibitory activity (IC50, nM) CAL-62
Method in brief: as §2

[6] = tested on: Jurkat cells (human T-cell leukemia cells); experiment: Tumor cell proliferation inhibition, CCK-8; type: cell-based; conditions: Jurkat cells, CCK-8, read-out: inhibitory activity (IC50, nM) Jurkat
Method in brief: as §2

[7] = tested on: MM.1S cells (human multiple myeloma cells); experiment: Tumor cell proliferation inhibition, CCK-8; type: cell-based; conditions: MM1.S, MM.1S cells, CCK-8, read-out: inhibitory activity (IC50, nM) MM.1S
Method in brief: as §2

[8] = tested on: MDA-MB-231 cells (human breast adenocarcinoma cells); experiment: Tumor cell proliferation inhibition, CCK-8; type: cell-based; conditions: MDA-MB-231 cells, CCK-8, read-out: inhibitory activity (IC50, nM) MDA-MB-231
Method in brief: as §2

[9] = tested on: CCRF-CEM (human acute lymphoblastic leukemia T-cells); experiment: Tumor cell proliferation inhibition, CCK-8; type: cell-based; conditions: CCRF-CEM cells, CCK-8, read-out: inhibitory activity (IC50, nM) CCRF-CEM
Method in brief: as §2

[10] = tested on: MM.1R cells (dexamethasone-resistant human multiple myeloma cells); experiment: Tumor cell proliferation inhibition, CCK-8; type: cell-based; conditions: MM.1R cells, CCK-8, read-out: inhibitory activity (IC50, nM) MM.1R
Method in brief: as §2

IKZF3 = IKZF3 (Homo sapiens (Human), UniProt Q96SW2+Q9UKT9); experiment: Western blot, substrate protein expression in hPBMC: IKZF3; type: cell-based; conditions: hPBMC, compound 500 nM, 24 hours, Western blot
IKZF3, sequence (Q9UKT9 whole entry): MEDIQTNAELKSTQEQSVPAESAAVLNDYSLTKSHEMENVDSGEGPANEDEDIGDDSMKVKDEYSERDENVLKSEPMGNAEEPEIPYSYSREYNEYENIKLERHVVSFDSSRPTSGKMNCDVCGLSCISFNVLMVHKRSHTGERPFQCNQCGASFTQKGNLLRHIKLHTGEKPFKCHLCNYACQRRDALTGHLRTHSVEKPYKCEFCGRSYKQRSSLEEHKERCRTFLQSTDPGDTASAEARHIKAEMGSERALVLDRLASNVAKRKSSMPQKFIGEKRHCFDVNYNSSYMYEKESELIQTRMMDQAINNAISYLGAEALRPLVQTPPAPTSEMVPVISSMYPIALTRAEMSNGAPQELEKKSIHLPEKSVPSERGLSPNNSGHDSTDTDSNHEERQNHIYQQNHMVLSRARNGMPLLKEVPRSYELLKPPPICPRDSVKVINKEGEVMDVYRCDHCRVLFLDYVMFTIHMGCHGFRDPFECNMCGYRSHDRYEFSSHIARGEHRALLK
IKZF3, sequence (Q96SW2 whole entry): as the sequence (Q96SW2 whole entry) above
IKZF3, sequence (Q16531 whole entry partner): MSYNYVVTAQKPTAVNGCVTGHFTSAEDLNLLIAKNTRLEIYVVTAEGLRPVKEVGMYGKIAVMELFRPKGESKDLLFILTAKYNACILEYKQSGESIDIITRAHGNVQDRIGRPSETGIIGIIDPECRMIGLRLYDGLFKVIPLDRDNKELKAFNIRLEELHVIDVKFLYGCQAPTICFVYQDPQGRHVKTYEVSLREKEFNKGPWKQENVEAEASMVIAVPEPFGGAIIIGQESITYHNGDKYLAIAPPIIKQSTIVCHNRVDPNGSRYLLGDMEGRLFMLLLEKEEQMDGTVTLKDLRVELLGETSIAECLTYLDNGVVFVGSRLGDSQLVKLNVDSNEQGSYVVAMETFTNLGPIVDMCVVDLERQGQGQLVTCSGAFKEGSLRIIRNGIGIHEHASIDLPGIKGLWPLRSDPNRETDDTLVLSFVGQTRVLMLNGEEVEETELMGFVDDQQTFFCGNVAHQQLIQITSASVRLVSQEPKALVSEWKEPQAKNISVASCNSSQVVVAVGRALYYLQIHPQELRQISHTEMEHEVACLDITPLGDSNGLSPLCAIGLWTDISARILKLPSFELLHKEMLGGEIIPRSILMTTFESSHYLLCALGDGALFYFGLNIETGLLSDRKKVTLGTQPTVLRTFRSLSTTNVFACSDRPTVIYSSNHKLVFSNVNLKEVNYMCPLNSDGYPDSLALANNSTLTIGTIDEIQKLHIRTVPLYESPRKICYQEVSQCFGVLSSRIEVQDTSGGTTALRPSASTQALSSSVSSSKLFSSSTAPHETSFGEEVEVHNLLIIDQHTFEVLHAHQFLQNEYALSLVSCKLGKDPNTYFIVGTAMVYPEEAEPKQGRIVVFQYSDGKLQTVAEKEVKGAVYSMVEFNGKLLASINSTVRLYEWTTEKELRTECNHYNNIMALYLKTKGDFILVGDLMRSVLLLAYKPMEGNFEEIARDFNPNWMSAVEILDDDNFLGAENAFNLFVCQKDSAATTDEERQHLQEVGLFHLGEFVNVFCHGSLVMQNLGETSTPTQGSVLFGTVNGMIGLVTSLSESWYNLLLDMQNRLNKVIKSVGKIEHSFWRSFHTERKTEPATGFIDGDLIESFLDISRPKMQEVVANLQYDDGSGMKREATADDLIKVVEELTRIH
Method in brief: as §1

IKZF1 = IKZF1 (Homo sapiens (Human), UniProt Q13422+Q96SW2); experiment: Western blot, substrate protein expression in hPBMC: IKZF1; type: cell-based; conditions: hPBMC, compound 500 nM, 24 hours, Western blot
IKZF1, sequence (Q13422 whole entry): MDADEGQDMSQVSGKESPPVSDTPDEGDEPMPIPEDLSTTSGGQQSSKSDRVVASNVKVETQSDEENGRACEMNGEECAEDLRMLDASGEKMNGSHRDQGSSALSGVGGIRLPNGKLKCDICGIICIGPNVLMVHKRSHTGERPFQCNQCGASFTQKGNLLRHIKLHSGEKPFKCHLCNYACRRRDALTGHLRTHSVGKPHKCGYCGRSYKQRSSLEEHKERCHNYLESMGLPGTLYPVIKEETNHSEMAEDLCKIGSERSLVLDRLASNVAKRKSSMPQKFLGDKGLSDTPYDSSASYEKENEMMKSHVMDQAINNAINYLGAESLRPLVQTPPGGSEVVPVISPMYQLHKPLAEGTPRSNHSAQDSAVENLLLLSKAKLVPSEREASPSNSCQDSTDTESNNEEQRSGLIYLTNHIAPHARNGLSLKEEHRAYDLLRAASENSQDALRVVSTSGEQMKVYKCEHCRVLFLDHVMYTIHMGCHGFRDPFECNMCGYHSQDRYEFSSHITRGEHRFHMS
IKZF1, sequence (Q96SW2 whole entry): as the sequence (Q96SW2 whole entry) above
IKZF1, sequence (Q16531 whole entry partner): as the sequence (Q16531 whole entry partner) above
Method in brief: as §1

GSPT1, sequence (P15170 whole entry): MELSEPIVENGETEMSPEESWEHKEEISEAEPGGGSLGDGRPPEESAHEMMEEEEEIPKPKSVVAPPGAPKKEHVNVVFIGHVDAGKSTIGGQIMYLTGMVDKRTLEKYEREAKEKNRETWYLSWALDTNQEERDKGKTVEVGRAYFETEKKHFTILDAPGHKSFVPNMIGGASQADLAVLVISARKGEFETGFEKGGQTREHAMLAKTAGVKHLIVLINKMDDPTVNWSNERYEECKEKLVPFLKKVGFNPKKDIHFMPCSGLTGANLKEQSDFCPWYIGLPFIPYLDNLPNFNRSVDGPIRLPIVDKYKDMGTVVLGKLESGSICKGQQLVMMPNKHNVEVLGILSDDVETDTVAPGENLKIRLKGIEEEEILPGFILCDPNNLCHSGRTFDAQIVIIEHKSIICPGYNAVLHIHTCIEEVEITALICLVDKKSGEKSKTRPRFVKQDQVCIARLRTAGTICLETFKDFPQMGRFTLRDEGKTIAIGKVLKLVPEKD
GSPT1, sequence (Q96SW2 whole entry): as the sequence (Q96SW2 whole entry) above
GSPT1, sequence (Q16531 whole entry partner): as the sequence (Q16531 whole entry partner) above

IC50 [1]: 500 to 1000 nM
IC50 [2]: 100 to 500 nM
IC50 [3]: 1 to 10 nM
IC50 [4]: 50 to 100 nM
IC50 [5]: 1 to 10 nM
IC50 [6]: 1 to 10 nM
IC50 [7]: 1 to 10 nM
IC50 [8]: 10 to 50 nM
IC50 [9]: 1 to 10 nM
IC50 [10]: 1 to 10 nM
SMILES: O=C1CCC(N2Cc3cc(CN4CCN(C(c5ccccc5)c5ccccn5)CC4)ccc3C2=O)C(=O)N1 (stereo not shown) [GT-03835, 3-(1-oxo-5-((4-(phenyl(pyridin-2-yl)methyl)piperazin-1-yl)methyl)isoindolin-2-yl)piperidine-2,6-dione]
substrate protein remaining % GSPT1 (GSPT1): A (A represents 0% ≤ substrate protein remaining % ≤ 50%)
substrate protein remaining % IKZF3 (IKZF3): A (A represents 0% ≤ substrate protein remaining % ≤ 50%)
substrate protein remaining % IKZF1 (IKZF1): A (A represents 0% ≤ substrate protein remaining % ≤ 50%)
